Data reported in patent US9173892B2, “Acadesine derivatives, products and compositions including same, therapeutic uses thereof, and methods for synthesizing same” (Universite Nice Sophia Antipolis, priority 2011, dated 2015).
Like-named read-outs stand apart in the source and are kept apart here. Values belong to the compound of their own block, whether it stands above or below them.

How the values were obtained:
caspase-9 [1] = test: caspase-9 activity (Ac-LEHD-AMC) in ImaR cells; type: cell-based, human; conditions: 24 hours, imatinib 3 μM, 112 2.5 μM, 15 and 23 10 μM
Protocol: (§1) The cells are lyzed and the caspase-9 activities are measured using 10 μg of proteins and Ac-LEHD-AMC. The fluorescence emission at 460 nm resulting from the release of AMC is then recorded.

K562 cells [2] = test: western blot of apoptosis and autophagy markers, K562 cells; type: cell-based, human; conditions: for expression of p62/SQSTM1 / LC3 cleavage (LC3-I into LC3-II) / PARP cleavage (fragment at 85 kDa): K562, 24 hours; for expression of p62/SQSTM1 / LC3 cleavage (LC3-I into LC3-II): AICAR 1 mM; for expression of p62/SQSTM1: 82, 86, 112 at 2.5 μM, 15, 23, 191 at 10 μM; for LC3 cleavage (LC3-I into LC3-II): 82, 86 at 2.5 μM, 15, 23, 191, 49 at 10 μM; for PARP cleavage (fragment at 85 kDa): imatinib 3 μM, 112 at 2.5 μM, 15, 23, 49 at 10 μM; for type of programmed cell death induced: conclusion of Example 1, K562 and ImaR cells
Protocol: (§2) The cells are lyzed and 35 μg of proteins are separated by SDS-PAGE (12 or 14% polyacrylamide gel) and analyzed by western blot with antibodies specific to each of the markers.

ImaR cells [3] = test: cell viability (XTT) of imatinib-resistant ImaR cells; type: cell-based, human; conditions: for efficacy in dose-response experiment (number of viable cells): 5, 10, 25 and 50 μM, compounds effective at concentrations as low as 5 μM; for viability at 500 µM / IC50: Homo sapiens, XTT; for viability at 500 µM: 0.5 mM, 24 hours, read-out: percentage of viable cells; for IC50: dose-response 5, 10, 25 and 50 μM, 24 or 48 hours, Example 1 (Table 1 codes)
Protocol: (§3) The K562 leukemic cell line is obtained from the pleural effusion of a patient with CML. This line is a good model for studying this disease. […] The K562 and ImaR cells are cultivated at 37° C. under 5% CO2 in an RPMI 1640 medium containing 5% fetal bovine serum and supplemented with sodium pyruvate and antibiotics (penicillin-streptomycin).
(§4) FIGS. 1 to 4 reflect the study of the cell viability.
(§5) After the addition of XTT reagent, the absorbance is measured at 490 nm.
as §5

caspase-9 [4] = test: caspase-9 activity (Ac-LEHD-AMC) in K562 cells; type: cell-based, human; conditions: for caspase-9 activity: K562, 24 hours, imatinib 3 μM, 112 2.5 μM, 15 and 23 10 μM; for pathway relaying the induced apoptosis: conclusion of Example 1, K562 and ImaR cells
Protocol: as §1

K562 cells [5] = test: flow cytometry analysis of the cell cycle, K562 cells; type: cell-based, human; conditions: for proportion of cells in the G2/M phase: 24 hours, 82, 86, 112 at 2.5 μM, 15, 23, 191, 49 at 10 μM; for cells in phase G0/G1 / cells in the subG1 phase: 24 hours, imatinib 3 μM, 112 at 2.5 μM, 15, 23, 49 at 10 μM
Protocol: (§6) The x-axis of the graph of FIG. 9 corresponds to the quantity of DNA marked with propidium iodide while the y-axis corresponds to the number of cells. […] The nuclei are marked with propidium iodide, then the proportion of cells in the different phases of the cell cycle (subG1, G0/G1, S, G2/M) is determined.

ImaR cells [6] = test: flow cytometry analysis of the cell cycle, ImaR cells; type: cell-based, human; conditions: for proportion of cells in the G2/M phase: 24 hours, 82, 86, 112 at 2.5 μM, 15, 23, 191, 49 at 10 μM; for cells in phase G0/G1 / cells in the subG1 phase: 24 hours, imatinib 3 μM, 112 at 2.5 μM, 15, 23, 49 at 10 μM
Protocol: as §6, with “nucleii” for “nuclei”

K562 cells [7] = test: cell viability (XTT) of imatinib-sensitive K562 cells; type: cell-based, human; conditions: K562; for viability at 500 µM / IC50: Homo sapiens, XTT; for viability at 500 µM: 0.5 mM, read-out: percentage of viable cells; for IC50: dose-response 5, 10, 25 and 50 μM; for efficacy in dose-response experiment (number of viable cells): 5, 10, 25 and 50 μM, compounds effective at concentrations as low as 5 μM
Protocol: as §3, §4, §5, §5, §5
After adding XTT reagent, the absorbance is measured at 490 nm.

ImaR cells [8] = test: western blot of apoptosis and autophagy markers, ImaR cells; type: cell-based, human; conditions: 24 hours; for expression of p62/SQSTM1: AICAR 1 mM, 82, 86, 112 at 2.5 μM, 15, 23, 191 at 10 μM; for LC3 cleavage (LC3-I into LC3-II): AICAR 1 mM, 82, 86 at 2.5 μM, 15, 23, 191, 49 at 10 μM; for PARP cleavage (fragment at 85 kDa): imatinib 3 μM, 112 at 2.5 μM, 15, 23, 49 at 10 μM
Protocol: as §2

[9] = tested on: imatinib-resistant CML K562 cells; test: tumor growth of imatinib-resistant CML K562 cells in athymic nude mice; type: in vivo; conditions: 1 mg/kg; for Mean weight of the mice on the day of sacrifice: control group 18.63, in g (unit assumed); for Mass of tumors at the end of the campaign (% vs. control): sum of tumor masses on the day of sacrifice
Protocol: The three compounds (86, 196 and 236) were tested at 1 mg/kg on the tumor growth of imatinib-resistant CML K562 cells in athymic nude mice. The tumors of the mice of each group are weighed on the day of sacrifice, and the sum of these masses constitutes a tumor growth index. This index is expressed as a percentage with respect to the growth of the control group (second line).

[10] = 24 or 48 hours, Example 1 (Table 1 codes)
[11] = 48 hours, Example 2 (Table 2 codes)

IC50 (K562 cells [7]; [10]): ~10 µM
Structure (SMILES): CCOC(=O)c1nnn([C@@H]2O[C@H](COC(C)=O)[C@@H](OC(C)=O)[C@H]2OC(C)=O)c1Cl [Compound 15, 1′-(4-ethoxycarbonyl-5-chloro-[1,2,3]-triazol-1-yl)-2′,3′,5′-tri-O-acetyl-β-D-ribofuranose]
caspase-9 activity (caspase-9 [1]): activation
expression of p62/SQSTM1 (K562 cells [2]): increase in the expression
LC3 cleavage (LC3-I into LC3-II) (K562 cells [2]): cleaved
PARP cleavage (fragment at 85 kDa) (K562 cells [2]): appearance of the characteristic cleavage fragment at 85 kDa
type of programmed cell death induced (K562 cells [2]): combination of the two types of mechanisms
efficacy in dose-response experiment (number of viable cells) (ImaR cells [3]): particularly effective
viability at 500 µM (ImaR cells [3]): < 10%
IC50 (ImaR cells [3]): ~10 µM
caspase-9 activity (caspase-9 [4]): activation
pathway relaying the induced apoptosis (caspase-9 [4]): intrinsic pathway
proportion of cells in the G2/M phase (K562 cells [5]): increase
cells in phase G0/G1 (K562 cells [5]): reduction
cells in the subG1 phase (K562 cells [5]): very pronounced accumulation
proportion of cells in the G2/M phase (ImaR cells [6]): increase
cells in phase G0/G1 (ImaR cells [6]): reduction
cells in the subG1 phase (ImaR cells [6]): very pronounced accumulation
viability at 500 µM (K562 cells [7]; 24 hours): < 10%
efficacy in dose-response experiment (number of viable cells) (K562 cells [7]): particularly effective
expression of p62/SQSTM1 (ImaR cells [8]): increase in the expression
LC3 cleavage (LC3-I into LC3-II) (ImaR cells [8]): cleaved
PARP cleavage (fragment at 85 kDa) (ImaR cells [8]): appearance of the characteristic cleavage fragment at 85 kDa

IC50 (K562 cells [7]; [11]): ~5 µM
Structure (SMILES): COC(=O)c1nnn([C@@H]2O[C@H](CO)[C@@H](O)[C@H]2O)c1I [Compound 21, 1′-(4-methoxycarbonyl-5-iodo-[1,2,3]-triazol-1-yl)-β-D-ribofuranose]
viability at 500 µM (K562 cells [7]; [11]): < 20%

IC50 (K562 cells [7]; [10]): ~10 µM
IC50 (K562 cells [7]; [11]): ~5 µM
Structure (SMILES): CCOC(=O)c1nnn(Cc2ccc3ccccc3c2)c1I [Compound 23]
viability at 500 µM (ImaR cells [3]): < 10%
IC50 (ImaR cells [3]): ~10 µM
viability at 500 µM (K562 cells [7]; 24 hours): < 10%

IC50 (K562 cells [7]; [11]): ~5 µM
Structure (SMILES): OC[C@H]1O[C@@H](n2nnc(-c3ccccc3)c2I)[C@H](O)[C@@H]1O [Compound 24, 1′-(4-phenyl-5-iodo-[1,2,3]-triazol-1-yl)-β-D-ribofuranose]

Structure (SMILES): CCOC(=O)C#Cc1c(C(=O)OCC)nnn1Cc1ccc2ccccc2c1 [Compound 25]
viability at 500 µM (ImaR cells [3]): < 10%
viability at 500 µM (K562 cells [7]; 24 hours): < 10%

Structure (SMILES): C#Cc1c(C(=O)OC)nnn1[C@@H]1O[C@H](CO)[C@@H](O)[C@H]1O [Compound 29, 1′-(4-methoxycarbonyl-5-ethynyl-[1,2,3]-triazol-1-yl)-β-D-ribofuranose]
viability at 500 µM (K562 cells [7]; [11]): < 20%

IC50 (K562 cells [7]; [11]): ~5 µM
Structure (SMILES): CCCCCCC(=O)c1c(C(=O)OCC)nnn1[C@@H]1O[C@H](COC(C)=O)[C@@H](OC(C)=O)[C@H]1OC(C)=O [Compound 30, 1′-(4-ethoxycarbonyl-5-heptanoyl-[1,2,3]-triazol-1-yl)-2′,3′,5′-tri-O-acetyl-β-D-ribofuranose]

Structure (SMILES): CCOC(=O)c1nnn([C@@H]2O[C@H](COC(C)=O)[C@@H](OC(C)=O)[C@H]2OC(C)=O)c1C(=O)c1ccc(C)cc1 [Compound 32, 1′-(4-ethoxycarbonyl-5-p-toluoyl-[1,2,3]-triazol-1-yl)-2′,3′,5′-tri-O-acetyl-β-D-ribofuranose]
viability at 500 µM (K562 cells [7]; [11]): < 20%

Mean weight of the mice on the day of sacrifice [9]: 18.43
IC50 (K562 cells [7]; [10]): ~2.5 µM
Structure (SMILES): CCOC(=O)c1nnn([C@@H]2O[C@H](COC(C)=O)[C@@H](OC(C)=O)[C@H]2OC(C)=O)c1-c1ccccc1 [Compound 86, 1′-(4-ethoxycarbonyl-5-phenyl-[1,2,3]-triazol-1-yl)-2′,3′,5′-tri-O-acetyl-β-D-ribofuranose]
Mass of tumors at the end of the campaign (% vs. control) [9]: 69.6 % vs. control
expression of p62/SQSTM1 (K562 cells [2]): increase in the expression
LC3 cleavage (LC3-I into LC3-II) (K562 cells [2]): cleaved
type of programmed cell death induced (K562 cells [2]): autophagy alone
efficacy in dose-response experiment (number of viable cells) (ImaR cells [3]): particularly effective
viability at 500 µM (ImaR cells [3]): < 10%
IC50 (ImaR cells [3]): ~2.5 µM
proportion of cells in the G2/M phase (K562 cells [5]): increase
proportion of cells in the G2/M phase (ImaR cells [6]): increase
viability at 500 µM (K562 cells [7]; 24 hours): < 10%
efficacy in dose-response experiment (number of viable cells) (K562 cells [7]): particularly effective
expression of p62/SQSTM1 (ImaR cells [8]): increase in the expression
LC3 cleavage (LC3-I into LC3-II) (ImaR cells [8]): cleaved

IC50 (K562 cells [7]; [10]): ~2.5 µM
Structure (SMILES): CCOC(=O)C#Cc1c(C(=O)OCC)nnn1Cc1ccc(C)cc1 [Compound 112, 1-(4-methylbenzyl)-4-ethoxycarbonyl-5-ethyl propiolate-1,2,3-triazole]
caspase-9 activity (caspase-9 [1]): activation
expression of p62/SQSTM1 (K562 cells [2]): increase in the expression
PARP cleavage (fragment at 85 kDa) (K562 cells [2]): appearance of the characteristic cleavage fragment at 85 kDa
type of programmed cell death induced (K562 cells [2]): apoptosis alone
efficacy in dose-response experiment (number of viable cells) (ImaR cells [3]): particularly effective
viability at 500 µM (ImaR cells [3]): < 10%
IC50 (ImaR cells [3]): ~2.5 µM
caspase-9 activity (caspase-9 [4]): activation
pathway relaying the induced apoptosis (caspase-9 [4]): intrinsic pathway
cells in phase G0/G1 (K562 cells [5]): reduction
cells in the subG1 phase (K562 cells [5]): very pronounced accumulation
cells in phase G0/G1 (ImaR cells [6]): reduction
cells in the subG1 phase (ImaR cells [6]): very pronounced accumulation
viability at 500 µM (K562 cells [7]; 24 hours): < 10%
efficacy in dose-response experiment (number of viable cells) (K562 cells [7]): particularly effective
expression of p62/SQSTM1 (ImaR cells [8]): increase in the expression
PARP cleavage (fragment at 85 kDa) (ImaR cells [8]): appearance of the characteristic cleavage fragment at 85 kDa

Structure (SMILES): CCCCCCCC#Cc1c(CCCCCCC)nnn1[C@@H]1O[C@H](COC(C)=O)[C@@H](OC(C)=O)[C@H]1OC(C)=O [Compound 176, 1′-(4-heptyl-5-(non-1-yn-1-yl)-[1,2,3]-triazol-1-yl)-2′,3′,5′-tri-O-acetyl-β-D-ribofuranose]
viability at 500 µM (ImaR cells [3]): < 10%
viability at 500 µM (K562 cells [7]; 24 hours): < 10%

Mean weight of the mice on the day of sacrifice [9]: 20.5
Structure (SMILES): CCOC(=O)C#Cc1c(C(=O)OCC)nnn1C1OC(COC(C)=O)C(OC(C)=O)C(OC(C)=O)C1OC(C)=O [Compound 196, 1′-(4-ethoxycarbonyl-5-ethyl propiolate-[1,2,3]-triazol-1-yl)-2′,3′,4′,6′-tetra-O-acetyl-β-D-glucopyranose]
inhibition of the tumor mass [9]: around 60%
Mass of tumors at the end of the campaign (% vs. control) [9]: 42 % vs. control

Mean weight of the mice on the day of sacrifice [9]: 20.14
Structure (SMILES): CCOC(=O)c1nnn([C@@H]2O[C@H](CO)[C@H]3OC(C)(C)O[C@H]32)c1-c1cccs1 [Compound 236, 1′-(4-ethoxycarbonyl-5-(2-thienyl)-[1,2,3]-triazol-1-yl)-2′,3′-O-isopropylidene-β-D-ribofuranose]
Mass of tumors at the end of the campaign (% vs. control) [9]: 60.3 % vs. control
